Assay results as given in publication PMC7828111, “In Search for Multi-Target Ligands as Potential Agents for Diabetes Mellitus and Its Complications—A Structure-Activity Relationship Study on Inhibitors of Aldose Reductase and Protein Tyrosine Phosphatase 1B” (Molecules, 2021).

Tests used:
[1] = tested on: insulin receptor (IRβ) phosphorylation in C2C12 cells; experiment: Insulin receptor phosphorylation in C2C12 cells (western blot); type: cell-based, murine
Description: The insulin mimetic/sensitizing activity of compound 4f was evaluated on both HepG2 and C2C12 cells. Starved HepG2 and C2C12 cells were incubated in the presence of compound 4f (25 μM) for 90 min and after stimulated or not with insulin (10 nM). Then, cells extracts were analysed to evaluate phosphorylation levels of the insulin receptor.
HepG2 and differentiated C2C12 cells were starved for 24 h and then incubated in the presence of compound 4f (25 μM, final concentration) for 90 min. After this time, cells were washed with PBS and then stimulated or not with 10 nM insulin for 30 min. Then, cells were lysed and cellular proteins separated on a 12% SDS-PAGE. After electrophoresis, cellular proteins were transferred on a PVDF membrane by western blot technique and then probed against antibodies able to specifically recognize insulin receptor (I2033 Sigma Aldrich) or phosphorylated form of IR (MABS65, Sigma-Aldrich). Sample loading was evaluated probing PVDF membrane with anti-actin antibodies (ABT1485 Sigma Aldrich).

[2] = tested on: HepG2 cells; experiment: Cell viability, MTT assay, HepG2; type: cell-based, human; settings: HepG2, 48 h, up to 50 μM
Description: Human liver cells (HepG2) and murine myoblasts (C2C12) were purchased by Sigma-Aldrich, which obtained them from the European Collection of Authenticated Cell Cultures (ECACC). HepG2 and C2C12 cells were grown in Dulbecco’s Modified Eagle’s medium (DMEM) supplemented with 10% foetal bovine serum (FBS), 2 mM glutamine, 100 IU/mL penicillin, 100 μg/mL streptomycin (Sigma-Aldrich, St. Louis, MO, USA), in a humidified atmosphere and with 5% CO2 at 37 °C. Differentiation of C2C12 was induced incubating murine myoblasts in DMEM supplemented with 2% horse serum. C2C12 cells were plated and grown until they reach 70% confluence. Then, cells were incubated in the presence of 2% horse serum for 96 h. Every 48 h, the medium was replaced with fresh medium. After 96 h, the degree of differentiation was evaluated analysing cells with a contrast phase microscope.
HepG2 and C2C12 cells were incubated in the presence of increasing concentrations of compounds 4e and 4f for 48 h at 37 °C. After this time, cells were washed with PBS and then incubated for 1 h with 0.5 mg/mL of MTT dissolved in complete medium. Then cells were washed and lysed with 300 μL of DMSO. The absorbance of solutions were evaluated using a microplate readers at 595 nm. All data were normalized respect to control experiment.

[3] = target: T1, human recombinant AR (Homo sapiens, UniProt P15121); experiment: Inhibition of human recombinant AR, L-idose as substrate (NADPH oxidation at 340 nm); type: biochemical; settings: human recombinant AR, 2 mM L-idose as substrate; mean ± S.E.M
T1 construct: made in house; host or cells: E. coli BL21(DE3)pLysS
Description: The human recombinant AR was expressed in BL21(DE3)pLysS E. coli cells and purified to electrophoretic homogeneity as previously described. The purified enzyme (specific activity 5.0 U/mg) was stored at −80 °C in 10 mM sodium phosphate buffer pH 7.0 containing 2 mM dithiothreitol and 30% (w/v) glycerol. AR activity was determined at 37 °C as previously described evaluating the decrease in absorbance at 340 nm linked to NADPH oxidation. […] One unit of enzyme activity is the amount that catalyzes the conversion of 1 μmol of substrate/min in the above assay conditions.
All compounds tested as aldose reductase inhibitors were dissolved in DMSO and added to the assay mixture containing 8 mU of purified AR. The reaction was started by addition of the substrate. The DMSO concentration in all the assays was kept constant at 0.5% (v/v) in order to avoid effects on AR activity.
The IC50 values were determined by nonlinear regression analysis using Prism GraphPad 6.0 fitting experimental data to the following equation:(1) vi/v0= Max−Min/1+( I/IC50)^slope +Min
In the equation, vi/v0, represents the ratio between the activity measured in the presence of the inhibitor and the activity measured in the absence of inhibitor; Max and Min represent the expected maximal and minimal value of the activity and were fixed at 1 and zero, respectively. Slope, which describes the steepness of curve in the transition region, was fixed at −1. For each compound, at least five different concentrations of inhibitor in the triplicate assay were analyzed.

SMILES: O=C(O)CCN1C(=O)/C(=C/c2ccc(OCCc3ccccc3)cc2)SC1=S [4f, 3-[(5Z)-4-Oxo-{5-[4-(2-phenylethoxy)phenyl]methylidene}-2-thioxothiazolidin-3-yl]propanoic acid]
- IRβ phosphorylation levels after insulin versus insulin alone ([1]; C2C12, 25 μM for 90 min, then 10 nM insulin 30 min): significantly higher
- Effect on basal IR phosphorylation levels ([1]; C2C12, 25 μM, 90 min, no insulin): did not appreciably affect
- Cytotoxicity (cell viability, MTT) [2]: well tolerated
- IC50 [3]: 5.3 ± 0.4 µM
